The text below walks through data of US20050142537A1, “System and method for rapid detection of metabolic deviations of a biological sample” (priority 2003, published 2005).

For this assay, the system named is E. coli. Briefly: Impedance-based rapid detection of metabolic deviations (sensitivity testing) of a biological sample containing E. coli. Format: cell-based. An excerpt: There is shown in FIG. 1, system 10 for rapid detection of metabolic deviations of a biological sample of this invention. System 10 includes control chamber 12 which receives biological sample 14 via fluidic channel 15. Control chamber 12 also includes spaced electrodes 16 and 18 which are used to measure the impedance of biological sample 14 disposed in control chamber 12, as discussed in further detail below. Biological sample 14 may be blood, urine, sputum, feces, spinal fluid, food, water, a solution containing one or more microbial organisms, or any other biological sample known to those skilled in the art. The microbial organisms in biological sample 14 may include any biological cell, such as Escherichia coli, Staphylococcus aureus, Enterococcus faecalis, Streptococcus pneumoniae, Neisseria gonorrhoeae, Mycobacterium tuberculosis, Saccharomyces cerevisiae, or any other microbial organism known to those skilled in the art. […]
System 10 includes measuring and detection device 28 connected to electrodes 16 and 18 of control chamber 12 by lines 29 and 31 and electrodes 24 and 26 of target chamber 22 by lines 33 and 35. […] Measuring and detection device 28 then compares the measured second impedances to the measured first impedances to determine if biological reagent 20 has induced any metabolic deviations to biological sample 14 in target chamber 22. […]

With `CCn1cc(C(=O)O)c(=O)c2cc(F)c(N3CCNCC3)cc21` [Norfloxacin], the “time at which sensitivity of the biological sample to the biological reagent is detected” value (FIG. 7 dashed line 404) is recorded as “about 40 minutes”. The “sensitivity of the biological sample to the biological reagent” value (measured impedance response vs control sample, FIG. 7 curve 402 vs curve 400) is listed as “sensitive”.
